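The concentration for 50% growth inhibition is given as GI50. At the TGI there is no net growth.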
Experiments:
Test in all cases: NCI anticancer screen, dose series, 384-well format
786-0 renal = system: 786-0 renal
A498 renal = system: A498 renal
A549 NSCLC = system: A549 NSCLC
ACHN renal = system: ACHN renal
BT-549 breast = system: BT-549 breast
CAKI-1 renal = system: CAKI-1 renal
CCRF-CEM leukemia = system: CCRF-CEM leukemia
COLO 205 colon = system: COLO 205 colon
DU-145 prostate = system: DU-145 prostate
EKVX NSCLC = system: EKVX NSCLC
HCC-2998 colon = system: HCC-2998 colon
HCT-116 colon = system: HCT-116 colon
HCT-15 colon = system: HCT-15 colon
HL-60(TB) leukemia = system: HL-60(TB) leukemia
HOP-62 NSCLC = system: HOP-62 NSCLC
HOP-92 NSCLC = system: HOP-92 NSCLC
HS 578T breast = system: HS 578T breast
HT29 colon = system: HT29 colon
IGROV1 ovarian = system: IGROV1 ovarian
K-562 leukemia = system: K-562 leukemia
KM12 colon = system: KM12 colon
LOX IMVI melanoma = system: LOX IMVI melanoma
M14 melanoma = system: M14 melanoma
MALME-3M melanoma = system: MALME-3M melanoma
MCF7 breast = system: MCF7 breast
MDA-MB-231 breast = system: MDA-MB-231 breast
MDA-MB-435 melanoma = system: MDA-MB-435 melanoma
MDA-MB-468 breast = system: MDA-MB-468 breast
MOLT-4 leukemia = system: MOLT-4 leukemia
NCI-H226 lung = system: NCI-H226 lung
NCI-H23 lung = system: NCI-H23 lung
NCI-H322M lung = system: NCI-H322M lung
NCI-H460 NSCLC = system: NCI-H460 NSCLC
NCI-H522 lung = system: NCI-H522 lung
NCI/ADR-RES ovarian = system: NCI/ADR-RES ovarian
OVCAR-3 ovarian = system: OVCAR-3 ovarian
OVCAR-4 ovarian = system: OVCAR-4 ovarian
OVCAR-8 ovarian = system: OVCAR-8 ovarian
PC-3 prostate = system: PC-3 prostate
RPMI-8226 leukemia = system: RPMI-8226 leukemia
RXF 393 renal = system: RXF 393 renal
SF-268 CNS = system: SF-268 CNS
SF-295 CNS = system: SF-295 CNS
SF-539 CNS = system: SF-539 CNS
SK-MEL-28 melanoma = system: SK-MEL-28 melanoma
SK-MEL-5 melanoma = system: SK-MEL-5 melanoma
SK-OV-3 ovarian = system: SK-OV-3 ovarian
SN12C renal = system: SN12C renal
SNB-19 CNS = system: SNB-19 CNS
SNB-75 CNS = system: SNB-75 CNS
SR leukemia = system: SR leukemia
SW-620 colon = system: SW-620 colon
T-47D breast = system: T-47D breast
TK-10 renal = system: TK-10 renal
U251 glioblastoma = system: U251 glioblastoma
UACC-257 melanoma = system: UACC-257 melanoma
UACC-62 melanoma = system: UACC-62 melanoma
UO-31 renal = system: UO-31 renal

CCS(=O)(=O)Nc1ccc(Oc2ccc(F)cc2F)c(-c2cn(C)c(=O)c3[nH]ccc23)c1 gave a GI50 ([…]-0 renal) of under 10 nM, a TGI (786-0 renal) of 2120 nM and a GI50 (A498 renal) of 21 nM. The TGI (A498 renal) was 3.25 µM, the GI50 (A549 NSCLC) was 34.6 nM and the TGI (A549 NSCLC) was 10.6 µM. It also gave a GI50 (ACHN renal) of 59.7 nM, a TGI (ACHN renal) of 10.1 µM and a GI50 (BT-549 breast) of under 10 nM. It also gave a TGI (BT-549 breast) of 172 nM, a GI50 (CAKI-1 renal) of under 10 nM and a TGI (CAKI-1 renal) of 475 nM. The GI50 (CCRF-CEM leukemia) was under 10 nM, the TGI (CCRF-CEM leukemia) was 353 nM and the GI50 (COLO 205 colon) was under 10 nM. The TGI (COLO 205 colon) was 724 nM, the GI50 (DU-145 prostate) was 174 nM and the TGI (DU-145 prostate) was 12.5 µM. For the same molecule, the GI50 (EKVX NSCLC) was 397 nM, the TGI (EKVX NSCLC) was 8.66 µM and the GI50 (HCC-2998 colon) was under 10 nM. The TGI (HCC-2998 colon) was 40.4 nM, the GI50 (HCT-116 colon) was 11.2 nM and the TGI (HCT-116 colon) was 1450 nM. It also gave a GI50 (HCT-15 colon) of under 10 nM, a TGI (HCT-15 colon) of 1050 nM and a GI50 (HL-60(TB) leukemia) of under 10 nM. For the same molecule, the TGI (HL-60(TB) leukemia) was under 10 nM, the GI50 (HOP-62 NSCLC) was under 10 nM and the TGI (HOP-62 NSCLC) was 337 nM. For the same molecule, the GI50 (HOP-92 NSCLC) was 10.9 nM, the TGI (HOP-92 NSCLC) was 1520 nM and the GI50 (HS 578T breast) was under 10 nM. It also gave a TGI (HS 578T breast) of 14.5 nM, a GI50 (HT29 colon) of under 10 nM and a TGI (HT29 colon) of 11 µM. For the same molecule, the GI50 (IGROV1 ovarian) was under 10 nM, the TGI (IGROV1 ovarian) was 196 nM and the GI50 (K-562 leukemia) was under 10 nM. The TGI (K-562 leukemia) was 1970 nM, the GI50 (KM12 colon) was 10 nM and the TGI (KM12 colon) was 1270 nM. The GI50 (LOX IMVI melanoma) was under 10 nM, the TGI (LOX IMVI melanoma) was 14.4 nM and the GI50 (M14 melanoma) was 12.7 nM. The TGI (M14 melanoma) was 10.2 µM, the GI50 (MALME-3M melanoma) was 11.5 nM and the TGI (MALME-3M melanoma) was 779 nM. The GI50 (MCF7 breast) was under 10 nM, the TGI (MCF7 breast) was 1180 nM and the GI50 (MDA-MB-231 breast) was under 10 nM. The TGI (MDA-MB-231 breast) was 2850 nM, the GI50 (MDA-MB-435 melanoma) was 140 nM and the TGI (MDA-MB-435 melanoma) was 11.5 µM. For the same molecule, the GI50 (MDA-MB-468 breast) was 10.4 nM, the TGI (MDA-MB-468 breast) was 429 nM and the GI50 (MOLT-4 leukemia) was under 10 nM. For the same molecule, the TGI (MOLT-4 leukemia) was 124 nM, the GI50 (NCI-H226 lung) was under 10 nM and the TGI (NCI-H226 lung) was 796 nM. It also gave a GI50 (NCI-H23 lung) of 10.5 nM, a TGI (NCI-H23 lung) of 237 nM and a GI50 (NCI-H322M lung) of under 10 nM. It also gave a TGI (NCI-H322M lung) of 1610 nM, a GI50 (NCI-H460 NSCLC) of 30.5 nM and a TGI (NCI-H460 NSCLC) of 2140 nM. For the same molecule, the GI50 (NCI-H522 lung) was under 10 nM, the TGI (NCI-H522 lung) was 114 nM and the GI50 (NCI/ADR-RES ovarian) was 82.6 nM. For the same molecule, the TGI (NCI/ADR-RES ovarian) was 1810 nM, the GI50 (OVCAR-3 ovarian) was under 10 nM and the TGI (OVCAR-3 ovarian) was 156 nM. The GI50 (OVCAR-4 ovarian) was under 10 nM, the TGI (OVCAR-4 ovarian) was 79.3 nM and the GI50 (OVCAR-8 ovarian) was under 10 nM. For the same molecule, the TGI (OVCAR-8 ovarian) was 131 nM, the GI50 (PC-3 prostate) was 22.3 nM and the TGI (PC-3 prostate) was 10.2 µM. The GI50 (RPMI-8226 leukemia) was under 10 nM, the TGI (RPMI-8226 leukemia) was under 10 nM and the GI50 (RXF 393 renal) was 308 nM. It also gave a TGI (RXF 393 renal) of 2490 nM, a GI50 (SF-268 CNS) of 67.4 nM and a TGI (SF-268 CNS) of 2740 nM. For the same molecule, the GI50 (SF-295 CNS) was 120 nM, the TGI (SF-295 CNS) was 4.14 µM and the GI50 (SF-539 CNS) was 27.2 nM. The TGI (SF-539 CNS) was 3.2 µM, the GI50 (SK-MEL-28 melanoma) was 50.2 nM and the TGI (SK-MEL-28 melanoma) was 2090 nM. It also gave a GI50 (SK-MEL-5 melanoma) of under 10 nM, a TGI (SK-MEL-5 melanoma) of 876 nM and a GI50 (SK-OV-3 ovarian) of under 10 nM. For the same molecule, the TGI (SK-OV-3 ovarian) was 504 nM, the GI50 (SN12C renal) was 24.8 nM and the TGI (SN12C renal) was 3.29 µM. For the same molecule, the GI50 (SNB-19 CNS) was 40.7 nM, the TGI (SNB-19 CNS) was 12.1 µM and the GI50 (SNB-75 CNS) was 112 nM. The TGI (SNB-75 CNS) was 5.4 µM, the GI50 (SR leukemia) was under 10 nM and the TGI (SR leukemia) was under 10 nM. The GI50 (SW-620 colon) was 174 nM, the TGI (SW-620 colon) was 1950 nM and the GI50 (T-47D breast) was 24.6 nM. The TGI (T-47D breast) was 1430 nM, the GI50 (TK-10 renal) was under 10 nM and the TGI (TK-10 renal) was 384 nM. For the same molecule, the GI50 (U251 glioblastoma) was 57.1 nM, the TGI (U251 glioblastoma) was 1800 nM and the GI50 (UACC-257 melanoma) was 12.8 nM. For the same molecule, the TGI (UACC-257 melanoma) was 1890 nM, the GI50 (UACC-62 melanoma) was under 10 nM and the TGI (UACC-62 melanoma) was 583 nM. The GI50 (UO-31 renal) was 38.2 nM and the TGI (UO-31 renal) was 10.3 µM.

— PubChem BioAssay (NCI)
